In ChEMBL document CHEMBL4699652, “Proline Hinged Amphipathic α-Helical Peptide Sensitizes Gram-Negative Bacteria to Various Gram-Positive Antibiotics” (J Med Chem, 2020):
The source made the active and inactive calls.

What was measured:
Escherichia coli [1] = experiment: Sensitization of rifampicin-induced antimicrobial activity against Escherichia coli ATCC 25922 infected in ICR CD1 mouse neutropenic thigh infection model assessed as reduction in bacterial CFU at 240 mg/kg, ip q1h x 8 hrs co-treated with 20 mg/kg, sc q4h x 8 hrs rifampicin; type: functional, organism-based
Cell membrane [2] = experiment: Induction of inner membrane permeability in Escherichia coli at 5 uM incubated for 1 hr by SYTOX Green-staining based flow cytometry analysis; type: subcellular
Lipopolysaccharide (LPS) [3] = experiment: Binding affinity to LPS in Escherichia coli D21 assessed as localization in membrane regions at 1 uM using TAMRA-labeled compound by confocal fluorescence microscopy
Pseudomonas aeruginosa [4] = experiment: Antimicrobial activity against multidrug-resistant Pseudomonas aeruginosa infected in ICR CD1 mouse model of sepsis protection model assessed as increase in mouse survival at 40 mg/kg, sc QD; type: functional, organism-based
[5] = Induction of cell membrane permeability in POPE/POPG assessed as calcein leakage at 2 to 8 uM; conditions: dose microM 2-8
[6] = Drug uptake in human HeLa cells at 1 uM incubated for 4 hrs using TAMRA-labeled compound; type: ADME, cell-based
Staphylococcus aureus = experiment: Antimicrobial activity against Staphylococcus aureus ATCC 29213 assessed as inhibition of bacterial growth incubated for 18 hrs by CLSI based method; type: functional
[7] = Drug localization in cytosol of Escherichia coli at 1 uM incubated for 4 hrs using TAMRA-labeled compound; type: ADME, subcellular
Escherichia coli [8] = experiment: Sensitization of linezolid-induced antimicrobial activity against Escherichia coli ATCC 25922 infected in ICR CD1 mouse neutropenic thigh infection model assessed as reduction in bacterial CFU at 150 mg/kg, ip q2h x 4 hrs co-treated with 150 mg/kg, sc q2h x 4 hrs linezolid; type: functional, organism-based
Acinetobacter baumannii [9] = experiment: Sensitization of linezolid-induced antimicrobial activity against Acinetobacter baumannii OXA infected in mouse skin infection model assessed as reduction in skin ulcer at 7.5 mg/kg, sc TID for 5 days co-treated with 3.1 mg/kg, sc linezolid; type: functional, organism-based; conditions: time 5.0 day
Cell membrane [10] = experiment: Induction of inner membrane permeability in Escherichia coli assessed as cytoplasmic beta-galactosidase release at 5 uM using ONPG
Lipopolysaccharide (LPS) [11] = experiment: Binding affinity to LPS in Escherichia coli D21f1 assessed as localization in membrane regions at 1 uM using TAMRA-labeled compound by confocal fluorescence microscopy
Escherichia coli [12] = experiment: Antimicrobial activity against Escherichia coli ATCC 25922 assessed as inhibition of bacterial growth incubated for 18 hrs by CLSI based method; type: functional
Acinetobacter baumannii [13] = experiment: Sensitization of clarithromycin-induced antimicrobial activity against Acinetobacter baumannii OXA infected in mouse skin infection model assessed as reduction in skin ulcer at 7.5 mg/kg, sc TID for 5 days co-treated with 20 ug/kg, sc clarithromycin; type: functional, organism-based; conditions: time 5.0 day
[14] = Drug localization in membrane of Escherichia coli at 1 uM incubated for 4 hrs using TAMRA-labeled compound; type: ADME, cell membranes, Cell membrane
Cell membrane [15] = experiment: Induction of outer membrane re-arragenemnts in Escherichia coli D21f2 incubated for 4 mins by NPN uptake assay; type: subcellular
Acinetobacter baumannii [16] = experiment: Sensitization of rifampicin-induced antimicrobial activity against Acinetobacter baumannii OXA infected in mouse skin infection model assessed as reduction in skin ulcer at 7.5 mg/kg, sc TID for 5 days co-treated with 20 ug/kg, sc rifampicin; type: functional, organism-based; conditions: time 5.0 day
Escherichia coli [17] = experiment: Sensitization of rifampicin-induced induction of cell killing in Escherichia coli assessed as time needed for bacterial destruction at 8 ug/ml; type: functional; conditions: dose 8 µg/ml
Escherichia coli [18] = experiment: Sensitization of rifampicin-induced antimicrobial activity against Escherichia coli ATCC 25922 infected in ICR CD1 mouse model of sepsis protection model assessed as mouse survival at 30 mg/kg, ip q1h x 8 hrs for 1 days co-treated with 5 mg/kg, sc q4h x 8 hrs rifampicin; type: functional; conditions: ATCC 25922, 24 h, time 1 day
Escherichia coli [19] = experiment: Sensitization of linezolid-induced antimicrobial activity against Cst-resistant Escherichia coli isolates assessed as inhibition of bacterial growth at 8 ug/ml incubated for 18 hrs by CLSI based method; type: functional, organism-based; conditions: dose 8.0 µg/ml
Lipopolysaccharide (LPS) [20] = experiment: Binding affinity to inner core/lipid A region of LPS in Escherichia coli ATCC 25922 at 1.25 uM incubated for 10 mins by protein-retention expansion microscopy
Escherichia coli [21] = experiment: Sensitization of linezolid-induced induction of cell killing in Escherichia coli assessed as time needed for bacterial destruction at 8 ug/ml; type: functional; conditions: dose 8 µg/ml
Cell membrane [22] = experiment: Induction of outer membrane re-arragenemnts in Escherichia coli ATCC 25922 incubated for 4 mins by NPN uptake assay; type: subcellular
Escherichia coli [23] = experiment: Sensitization of rifampicin-induced antimicrobial activity against Escherichia coli ATCC 25922 infected in ICR CD1 mouse model of sepsis protection model assessed as increase in mouse survival at 30 mg/kg, ip q1h x 8 hrs for 7 days co-treated with 5 mg/kg, sc q4h x 8 hrs rifampicin; type: functional, organism-based; conditions: time 7.0 day
Lipopolysaccharide (LPS) [24] = experiment: Binding affinity to LPS in Escherichia coli D21e7 assessed as localization in membrane regions at 1 uM using TAMRA-labeled compound by confocal fluorescence microscopy
Escherichia coli [25] = experiment: Binding affinity to outer membrane in POPE/POPG lipid layers containing LPS by SPR assay
Escherichia coli [26] = experiment: Binding affinity to cell membrane using POPC/cholesterol (8/2) by SPR assay
Lipopolysaccharide (LPS) [27] = experiment: Binding affinity to LPS in Escherichia coli D21f2 assessed as localization in membrane regions at 1 uM using TAMRA-labeled compound by confocal fluorescence microscopy
Lipopolysaccharide (LPS) [28] = experiment: Binding affinity to O-antigen-deficient Escherichia coli LPS in POPE/POPG lipid layers containing O-antigen-deficient LPS by SPR assay
[29] = Drug uptake in Escherichia coli at 1 uM incubated for 4 hrs using TAMRA-labeled compound; type: ADME
Cell membrane [30] = experiment: Induction of outer membrane permeability in Escherichia coli assessed as periplasmic-beta-lactamase release at 5 uM using CENTA; type: subcellular
Pseudomonas aeruginosa [31] = experiment: Sensitization of colistin-induced antimicrobial activity against multidrug-resistant Pseudomonas aeruginosa infected in ICR CD1 mouse model of sepsis protection model assessed as increase in mouse survival at 25 mg/kg, sc QD for 1 days co-treated with 40 mg/kg, sc QD colistin; type: functional; conditions: time 1 day
Escherichia coli [32] = experiment: Sensitization of colistin-induced antimicrobial activity against NDM-1 producing carbapenem-resistant Escherichia coli infected in ICR CD1 mouse model of sepsis protection model assessed as increase in mouse survival at 12.5 mg/kg, sc QD for 1 days co-treated with 40 mg/kg, sc QD colistin; type: functional; conditions: time 1 day
Escherichia coli [33] = experiment: Sensitization of rifampicin-induced antimicrobial activity against Cst-resistant Escherichia coli isolates assessed as inhibition of bacterial growth at 8 ug/ml incubated for 18 hrs by CLSI based method; type: functional, organism-based; conditions: dose 8.0 µg/ml
Escherichia coli [34] = experiment: Sensitization of linezolid-induced antimicrobial activity against Escherichia coli ATCC 25922 infected in ICR CD1 mouse model of sepsis protection model assessed as increase in mouse survival at 30 mg/kg, ip q1h x 8 hrs for 7 days co-treated with 25 mg/kg, sc q4h x 8 hrs linezolid; type: functional, organism-based; conditions: time 7.0 day

Ac-KLLKLLKKPLKLLK-NH2
8 h: Time (Escherichia coli [17]) | Time (Escherichia coli [21])
75%: Activity (Pseudomonas aeruginosa [31]) | Activity (Escherichia coli [32])
inactive: Activity (Cell membrane [2]) | Activity (Pseudomonas aeruginosa [4]) | Activity [5] | Activity (Cell membrane [10]) | Activity (Cell membrane [15]) | Activity (Escherichia coli [25]) | Activity (Escherichia coli [26]) | Activity (Cell membrane [30])
Active: Drug uptake [14] | Drug uptake [29]
active: Activity (Escherichia coli [1]) | Activity (Lipopolysaccharide (LPS) [3]) | Activity (Escherichia coli [8]) | Activity (Acinetobacter baumannii [9]) | Activity (Lipopolysaccharide (LPS) [11]) | Activity (Acinetobacter baumannii [13]) | Activity (Acinetobacter baumannii [16]) | Activity (Escherichia coli [19]) | Activity (Lipopolysaccharide (LPS) [20]) | Activity (Cell membrane [22]) | Activity (Escherichia coli [23]) | Activity (Lipopolysaccharide (LPS) [24]) | Activity (Lipopolysaccharide (LPS) [27]) | Activity (Lipopolysaccharide (LPS) [28]) | Activity (Escherichia coli [33]) | Activity (Escherichia coli [34])
Not Active: Drug uptake [6] | Drug uptake [7]
> 80 µM: MIC (Staphylococcus aureus) | MIC (Escherichia coli [12])
90%: survival at 30 mg/kg (Escherichia coli [18])
